Key:
B10R cells = experiment: UCSD infection assay, host cell cytotoxicity (CC50); assay type: cell-based; details: host B10R cells
[1] = tested on: L. donovani intracellular amastigotes infecting THP-1 macrophages; details: GlaxoSmithKline Phase I VL candidates; read-out: intramacrophage EC50; cited from earlier work

Compound: COc1ncccc1C1c2c(CC(C)C)n[nH]c2C(=O)N1c1ccc2ncnn2c1 (centres unmarked) [BUCMD00162]
- B10R Host Cell CC50 (B10R cells): >10000 nM

Compound: C[C@H]1CN(c2n[nH]c3nc(N[C@H]4CC[C@H](NS(=O)(=O)CCC(F)(F)F)CC4)ncc23)CCO1 [GSK3186899]
- EC50 [1]: 1400 nM

Reference: patent US20230381142A1, “ANTILEISHMANIAL COMPOUNDS, COMPOSITIONS AND USE THEREOF” (TRUSTEES OF BOSTON UNIVERSITY, priority 2022, published 2023)
